Values quoted from earlier work as cited in publication PMC5939605, “Highly luminescent, biocompatible ytterbium(III) complexes as near-infrared fluorophores for living cell imaging” (Chemical Science, 2018).

How the values were obtained:
[1] = set-up: method as in PMID 12895128; conditions: in CH2Cl2 ref 53; cited from earlier work
[2] = set-up: method as in PMID 22908122; conditions: in CHCl3 ref 59; cited from earlier work

Row | Molecule | NIR luminescence quantum yield of reference [1] | singlet oxygen quantum yield of reference (ΦΔ) [2]
1 | 5,10,15,20-tetraphenylporphyrin-Yb(III)-[(cyclopentadienyl)tris(di(ethyl)phosphito)cobaltate] [YbTPP(LOEt)] | 0.024 | –
2 | C1=Cc2nc1c(-c1ccccc1)c1nc(c(-c3ccccc3)c3ccc([nH]3)c(-c3ccccc3)c3ccc([nH]3)c2-c2ccccc2)C=C1 [TPP, tetraphenylporphyrin] | – | 0.55
